Measured values reported in patent US20050238577A1, “Isolation of epithelial cells or their biochemical contents from excreta after in vivo isotopic labeling” (The Regents of the University of California, priority 2004, published 2005).

Test: Tolerability of maintained 2H2O body water enrichment
Assay type: in vivo
Settings: 1-10% of total body water labeled, maintained for weeks or months in humans (>100 people) and experimental animals; rapid changes in enrichment prevented
Source text: Relatively high body water enrichments of ^2H2O (e.g., 1-10% of the total body water is labeled) may be achieved relatively inexpensively using the techniques of the invention. […] This finding in a large number of human subjects (>100 people) is contrary to previous concerns about vestibular toxicities at high doses of ^2H2O. The Applicant has discovered that as long as rapid changes in body water enrichment are prevented (e.g., by initial administration in small, divided doses), high body water enrichments of ^2H2O can be maintained with no toxicities. For example, the low expense of commercially available ^2H2O allows long-term maintenance of enrichments in the 1-5% range at relatively low expense (e.g., calculations reveal a lower cost for 2 months labeling at 2% ^2H2O enrichment, and thus 7-8% enrichment in the alanine precursor pool, than for 12 hours labeling of ^2H-leucine at 10% free leucine enrichment, and thus 7-8% enrichment in leucine precursor pool for that period).

[2H]O[2H] [^2H2O, deuterated water]
toxicity at maintained body water enrichment: without any evidence of toxicity
